# Legend:
# [1] = tested on: common waterhemp, Non-Target Site Resistant "ACR" Population; assay: Greenhouse dose-response, effective dose on atrazine-resistant waterhemp; format: in vivo, Amaranthus tuberculatus; conditions: 13 days after treatment, visual scale 0-100
# [2] = tested on: common waterhemp, Non-Target Site Resistant "MCR" Population; assay: as above; format: in vivo, Amaranthus tuberculatus; conditions: 13 days after treatment, visual scale 0-100
structure (smiles),measurement,setting,value
"CCNc1nc(Cl)nc(NC(C)C)n1 [Atrazine (480 g/L FL), Atrazine]",ED 20 Estimate,[1],6.782 g ai/ha
same,ED 80 Estimate,[1],768.664 g ai/ha
same,ED 20 Estimate,[2],20.856 g ai/ha
same,ED 80 Estimate,[2],793.705 g ai/ha

# Reference: patent publication US20250248402A1, “HERBICIDAL COMPOSITIONS AND METHODS FOR CONTROLLING WEEDS” (UPL Mauritius Limited, priority 2024, published 2025)
